Reference: ChEMBL document CHEMBL1139449, “Synthesis and inhibitory activity against COX-2 catalyzed prostaglandin production of chrysin derivatives” (Bioorg Med Chem Lett, 2004)

Experiments:
[1] = system: RAW264.7; assay: Evaluated for inhibition of COX-2 catalyzed PGE-2 production from LPS induced RAW 264.7 cells; Range: 0.1-0.5 uM; assay type: functional, cell-based; conditions: Mus musculus
[2] = system: RAW264.7; assay: Evaluated for inhibition of COX-2 catalyzed PGE-2 production from LPS induced RAW 264.7 cells; assay type: functional, cell-based; conditions: Mus musculus

Compound | IC50 [1] | IC50 [2]
COc1ccc2c(=O)cc(-c3ccc(Cl)c(Cl)c3)oc2c1 | < 500 nM | –
O=c1cc(-c2ccc(Cl)c(Cl)c2)oc2cc(O)ccc12 | < 500 nM | –
COc1cccc2oc(-c3ccc(Cl)c(Cl)c3)cc(=O)c12 | < 500 nM | –
COc1ccc2c(=O)cc(-c3ccc(Cl)cc3)oc2c1 | – | 500 nM
O=c1cc(-c2ccccc2)oc2ccccc12 [FLAVONE] | – | 500 nM
CS(=O)(=O)Nc1ccc([N+](=O)[O-])cc1OC1CCCCC1 [NS-398] | – | 500 nM
COc1c(O)cc(O)c2c(=O)cc(-c3ccccc3)oc12 [WOGONIN] | – | 1080 nM
